# Values joined by “and” are separate entries in the source; they are usually repeats but may differ in a detail not shown here. Identical values can stand only once.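 Grown in 96-well plates, cells were treated for 48 hours with each compound at five concentrations. Insufficient inhibition: endpoint recorded as highest concentration tested. At the GI50, growth is halved. TGI is the concentration that stops growth completely.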
# Columns and labels:
# Assay in all cases: NCI-60 cell line screen, 48 h
# SK-MEL-2 melanoma = tested on: SK-MEL-2 melanoma
# SR leukemia = tested on: SR leukemia
# HCT-116 colon = tested on: HCT-116 colon
# NCI-H23 lung = tested on: NCI-H23 lung
# MDA-MB-231 breast = tested on: MDA-MB-231 breast
# MALME-3M melanoma = tested on: MALME-3M melanoma
# SF-539 CNS = tested on: SF-539 CNS
# IGROV1 ovarian = tested on: IGROV1 ovarian
# NCI/ADR-RES ovarian = tested on: NCI/ADR-RES ovarian
# HT29 colon = tested on: HT29 colon
structure (smiles),measurement,setting,value
CNC(=S)N/N=C(/C)CCC/C(C)=N/NC(=S)NC,TGI,SK-MEL-2 melanoma,> 100 µM
same,TGI,SR leukemia,> 100 µM
same,TGI,HCT-116 colon,> 100 µM
same,TGI,NCI-H23 lung,> 100 µM
same,TGI,MDA-MB-231 breast,> 100 µM
same,TGI,MALME-3M melanoma,> 100 µM
same,TGI,SF-539 CNS,> 100 µM
same,TGI,IGROV1 ovarian,> 100 µM
same,TGI,NCI/ADR-RES ovarian,> 100 µM
same,TGI,HT29 colon,> 100 µM
O=C(CN/C=C\C(=O)c1cc(Cl)ccc1Cl)c1ccccc1,GI50,SR leukemia,> 100 µM
same,TGI,SR leukemia,> 100 µM
same,GI50,HCT-116 colon,21.2 µM
same,TGI,HCT-116 colon,43.1 µM
same,GI50,NCI-H23 lung,19.1 µM
same,TGI,NCI-H23 lung,44.2 µM
same,GI50,MDA-MB-231 breast,21.6 µM
same,TGI,MDA-MB-231 breast,47.5 µM
same,GI50,MALME-3M melanoma,25.1 µM
same,TGI,MALME-3M melanoma,78.3 µM
same,GI50,SF-539 CNS,20.4 µM
same,TGI,SF-539 CNS,38.8 µM
same,GI50,IGROV1 ovarian,29.1 µM
same,TGI,IGROV1 ovarian,> 100 µM
same,GI50,NCI/ADR-RES ovarian,19.7 µM
same,TGI,NCI/ADR-RES ovarian,41.2 µM
same,GI50,HT29 colon,31.6 µM
same,TGI,HT29 colon,> 100 µM
OCCCNC(=S)Nc1ccc(-c2nc3ccccc3s2)cc1,GI50,SK-MEL-2 melanoma,31.6 µM
same,TGI,SK-MEL-2 melanoma,> 100 µM
same,GI50,SR leukemia,14.6 µM
same,TGI,SR leukemia,50 µM
same,GI50,HCT-116 colon,19.9 µM
same,TGI,HCT-116 colon,46.2 µM
same,GI50,NCI-H23 lung,24.3 µM
same,TGI,NCI-H23 lung,60.8 µM
same,GI50,MDA-MB-231 breast,16.5 µM
same,TGI,MDA-MB-231 breast,43.5 µM
same,GI50,MALME-3M melanoma,19.3 µM
same,TGI,MALME-3M melanoma,52.7 µM
same,GI50,SF-539 CNS,29.8 µM
same,TGI,SF-539 CNS,95.4 µM
same,GI50,IGROV1 ovarian,13.5 µM
same,TGI,IGROV1 ovarian,95.4 µM
same,GI50,NCI/ADR-RES ovarian,25.2 µM
same,TGI,NCI/ADR-RES ovarian,66.6 µM
same,GI50,HT29 colon,32.2 µM
same,TGI,HT29 colon,> 100 µM
COc1ccc2c(c1)N(CCO)C1=C(C(=O)OC1)C2c1cccc(Br)c1 (centres undefined),GI50,SK-MEL-2 melanoma,0.0595 µM
same,TGI,SK-MEL-2 melanoma,3.24 µM
same,GI50,SR leukemia,0.0826 µM
same,TGI,SR leukemia,55.7 µM
same,GI50,HCT-116 colon,0.05 µM
same,TGI,HCT-116 colon,2.88 µM
same,GI50,NCI-H23 lung,0.156 µM
same,TGI,NCI-H23 lung,> 100 µM
same,GI50,MDA-MB-231 breast,0.372 µM
same,TGI,MDA-MB-231 breast,19.4 µM
same,GI50,MALME-3M melanoma,0.0536 µM
same,TGI,MALME-3M melanoma,85.7 µM
same,GI50,SF-539 CNS,0.0498 µM
same,TGI,SF-539 CNS,0.859 µM
same,GI50,IGROV1 ovarian,0.088 µM
same,TGI,IGROV1 ovarian,> 100 µM
same,GI50,NCI/ADR-RES ovarian,0.0397 µM
same,TGI,NCI/ADR-RES ovarian,0.223 µM
same,GI50,HT29 colon,0.0429 µM
same,TGI,HT29 colon,0.387 µM
CCOC(=O)C1=C(N)Oc2cc(OC)ccc2C1c1ccc(F)c(F)c1 (centres undefined),GI50,SK-MEL-2 melanoma,0.542 µM
same,TGI,SK-MEL-2 melanoma,15.8 µM
same,GI50,SR leukemia,0.533 µM
same,TGI,SR leukemia,16.7 µM
same,GI50,HCT-116 colon,1.25 µM
same,TGI,HCT-116 colon,16.1 µM
same,GI50,NCI-H23 lung,2.89 µM
same,TGI,NCI-H23 lung,18.4 µM
same,GI50,MDA-MB-231 breast,2.48 µM
same,TGI,MDA-MB-231 breast,13.8 µM
same,GI50,MALME-3M melanoma,10.3 µM
same,TGI,MALME-3M melanoma,24.1 µM
same,GI50,SF-539 CNS,2.13 µM
same,TGI,SF-539 CNS,8.3 µM
same,GI50,IGROV1 ovarian,2.72 µM
same,TGI,IGROV1 ovarian,20.1 µM
same,GI50,NCI/ADR-RES ovarian,0.703 µM
same,TGI,NCI/ADR-RES ovarian,17 µM
same,GI50,HT29 colon,0.481 µM
same,TGI,HT29 colon,11 µM
CCN1CCN(Cc2ccc3cc(C(=O)Nc4cc(NC(=O)c5ccc6c(c5)OCCO6)ccc4F)ccc3n2)CC1,GI50,SK-MEL-2 melanoma,0.029 µM
same,TGI,SK-MEL-2 melanoma,0.118 µM
same,GI50,SR leukemia,0.0443 µM
same,TGI,SR leukemia,1.48 µM
same,GI50,HCT-116 colon,0.0354 µM
same,TGI,HCT-116 colon,13 µM
same,GI50,NCI-H23 lung,0.121 µM
same,TGI,NCI-H23 lung,5.27 µM
same,GI50,MDA-MB-231 breast,0.0332 µM
same,TGI,MDA-MB-231 breast,0.569 µM
same,GI50,MALME-3M melanoma,0.0394 µM
same,TGI,MALME-3M melanoma,0.42 µM
same,GI50,SF-539 CNS,0.0824 µM
same,TGI,SF-539 CNS,0.72 µM
same,GI50,IGROV1 ovarian,0.0297 µM
same,TGI,IGROV1 ovarian,0.848 µM
same,GI50,NCI/ADR-RES ovarian,0.369 µM
same,TGI,NCI/ADR-RES ovarian,9.55 µM
same,GI50,HT29 colon,0.0528 µM
same,TGI,HT29 colon,11.9 µM
COc1ccc(/C=C2\CCCC3=C2N=C2SC=NN2C3c2ccc(OC)c(OC)c2)cc1OC (centres undefined),GI50,SK-MEL-2 melanoma,25.8 µM
same,TGI,SK-MEL-2 melanoma,> 100 µM
same,GI50,SR leukemia,5.65 µM
same,TGI,SR leukemia,66.1 µM
same,GI50,HCT-116 colon,4.79 µM
same,TGI,HCT-116 colon,32.5 µM
same,GI50,NCI-H23 lung,22.4 µM
same,TGI,NCI-H23 lung,> 100 µM
same,GI50,MDA-MB-231 breast,26 µM
same,TGI,MDA-MB-231 breast,> 100 µM
same,GI50,MALME-3M melanoma,22.6 µM
same,TGI,MALME-3M melanoma,78.7 µM
same,GI50,SF-539 CNS,14.6 µM
same,TGI,SF-539 CNS,68.5 µM
same,GI50,IGROV1 ovarian,28.9 µM
same,TGI,IGROV1 ovarian,> 100 µM
same,GI50,NCI/ADR-RES ovarian,18.2 µM
same,TGI,NCI/ADR-RES ovarian,> 100 µM
same,GI50,HT29 colon,19.9 µM
same,TGI,HT29 colon,> 100 µM
Nc1nn(C(=O)Nc2ccc(Cc3ccccc3)cc2)c2ccccc12,GI50,SK-MEL-2 melanoma,36.4 µM
same,TGI,SK-MEL-2 melanoma,> 100 µM
same,GI50,SR leukemia,0.0153 µM
same,TGI,SR leukemia,0.0822 µM
same,GI50,HCT-116 colon,7.03 µM
same,TGI,HCT-116 colon,> 100 µM
same,GI50,NCI-H23 lung,16.8 µM
same,TGI,NCI-H23 lung,83.5 µM
same,GI50,MDA-MB-231 breast,0.847 µM
same,TGI,MDA-MB-231 breast,43.9 µM
same,GI50,MALME-3M melanoma,19.2 µM
same,TGI,MALME-3M melanoma,64.1 µM
same,GI50,SF-539 CNS,0.495 µM
same,TGI,SF-539 CNS,5.36 µM
same,GI50,IGROV1 ovarian,6.98 µM
same,TGI,IGROV1 ovarian,48.8 µM
same,GI50,NCI/ADR-RES ovarian,7.87 µM
same,TGI,NCI/ADR-RES ovarian,> 100 µM
same,GI50,HT29 colon,2.39 µM
same,TGI,HT29 colon,17.6 µM
COc1ccc(-c2oncc2-c2cc(OC)c3c(c2)OCO3)cc1,GI50,SK-MEL-2 melanoma,2.88 µM
same,TGI,SK-MEL-2 melanoma,> 29.5 µM
same,GI50,SR leukemia,1.13 µM
same,TGI,SR leukemia,39.6 µM
same,GI50,HCT-116 colon,3.28 µM
same,TGI,HCT-116 colon,> 58.3 µM
same,GI50,NCI-H23 lung,4.94 µM
same,TGI,NCI-H23 lung,> 100 µM
same,GI50,MDA-MB-231 breast,2.8 µM
same,TGI,MDA-MB-231 breast,54 µM
same,GI50,MALME-3M melanoma,> 100 µM
same,TGI,MALME-3M melanoma,> 100 µM
same,GI50,SF-539 CNS,2 µM
same,TGI,SF-539 CNS,5.92 µM
same,GI50,IGROV1 ovarian,3.9 µM
same,TGI,IGROV1 ovarian,> 65.7 µM
same,GI50,NCI/ADR-RES ovarian,1.63 µM
same,TGI,NCI/ADR-RES ovarian,24.4 µM
same,GI50,HT29 colon,1.69 µM
same,TGI,HT29 colon,13.7 µM
CC(=O)/C=C/c1ccc(N(C)Cc2ccc(C(C)(C)C)cc2)cc1,GI50,SK-MEL-2 melanoma,164 µM
same,TGI,SK-MEL-2 melanoma,344 µM
same,GI50,SR leukemia,137 µM
same,TGI,SR leukemia,499 µM
same,GI50,HCT-116 colon,80.6 µM
same,TGI,HCT-116 colon,290 µM
same,GI50,NCI-H23 lung,87.4 µM
same,TGI,NCI-H23 lung,550 µM
same,GI50,MDA-MB-231 breast,122 µM
same,TGI,MDA-MB-231 breast,293 µM
same,GI50,MALME-3M melanoma,138 µM
same,TGI,MALME-3M melanoma,284 µM
same,GI50,SF-539 CNS,161 µM
same,TGI,SF-539 CNS,316 µM
same,GI50,IGROV1 ovarian,241 µM
same,GI50,NCI/ADR-RES ovarian,114 µM
same,TGI,NCI/ADR-RES ovarian,271 µM
same,GI50,HT29 colon,58.4 µM
O=C(Nc1ncc(Cc2ccc(Cl)cc2)s1)c1ccc2c(c1)OCCO2,GI50,SK-MEL-2 melanoma,0.343 µM
same,TGI,SK-MEL-2 melanoma,> 69.4 µM
same,GI50,SR leukemia,0.0528 µM
same,TGI,SR leukemia,> 100 µM
same,GI50,HCT-116 colon,0.0419 µM
same,TGI,HCT-116 colon,> 100 µM
same,GI50,NCI-H23 lung,0.298 µM
same,TGI,NCI-H23 lung,> 100 µM
same,GI50,MDA-MB-231 breast,0.176 µM
same,TGI,MDA-MB-231 breast,3.15 µM
same,GI50,MALME-3M melanoma,0.059 µM
same,TGI,MALME-3M melanoma,> 86.5 µM
same,GI50,SF-539 CNS,0.0469 µM
same,TGI,SF-539 CNS,0.571 µM
same,GI50,IGROV1 ovarian,0.126 µM
same,TGI,IGROV1 ovarian,> 100 µM
same,GI50,NCI/ADR-RES ovarian,0.0393 µM
same,TGI,NCI/ADR-RES ovarian,5.58 µM
same,GI50,HT29 colon,0.171 µM
same,TGI,HT29 colon,> 43.4 µM
COc1ccc2cc(C(=O)/C=C/c3ccccc3OC)ccc2c1,GI50,SK-MEL-2 melanoma,10.3 µM
same,TGI,SK-MEL-2 melanoma,35.2 µM
same,GI50,SR leukemia,0.312 µM
same,GI50,HCT-116 colon,1.4 µM
same,TGI,HCT-116 colon,6.5 µM
same,GI50,NCI-H23 lung,5.02 µM
same,TGI,NCI-H23 lung,23.3 µM
same,GI50,MDA-MB-231 breast,2.73 µM
same,TGI,MDA-MB-231 breast,21.7 µM
same,GI50,MALME-3M melanoma,8.32 µM
same,TGI,MALME-3M melanoma,67.2 µM
same,GI50,SF-539 CNS,1.72 µM
same,TGI,SF-539 CNS,4.6 µM
same,GI50,IGROV1 ovarian,0.769 µM
same,TGI,IGROV1 ovarian,4.06 µM
same,GI50,NCI/ADR-RES ovarian,3.19 µM
same,TGI,NCI/ADR-RES ovarian,> 37.4 µM
same,GI50,HT29 colon,1.67 µM
same,TGI,HT29 colon,> 45.5 µM
COC(=O)C12OCC34C(CC5C(C)=CC(=O)C(O)C5(C)C3C(O)C1O)OC(=O)C(OC(=O)CC(C)C)C24 (centres undefined),GI50,SK-MEL-2 melanoma,0.0562 µM and 0.316 µM
same,TGI,SR leukemia,0.0506 µM
same,GI50,NCI-H23 lung,< 0.046 µM and 0.05 µM
same,TGI,MDA-MB-231 breast,0.0247 µM
same,GI50,MALME-3M melanoma,< 0.0356 µM
same,GI50,SF-539 CNS,< 0.034 µM
same,GI50,IGROV1 ovarian,< 0.0288 µM and 0.05 µM
same,GI50,NCI/ADR-RES ovarian,0.288 µM
same,GI50,HT29 colon,0.0588 µM

# — PubChem BioAssay (NCI)
